The values that follow are results of earlier work, collected in patent EP0005248A2, “Tetrapeptidehydrazide derivatives and process for their preparation” (Takeda Chemical Industries, Ltd., priority 1978, dated 1979).

The conditions of the series: for analgesic action: intravenous administration.

As to H=ryr -Gly-Gly-Phe-Met-OH, the analgesic action result was “do not have an analgesic action”. For the same substance, the morphinomimetic action result (directly administered by the intracerebral route) is reported as “display a morphinemimetic action”.

As to “β-Endorphin (YGGFMTSEKSQTPLVTLFKNAIIKNAYKKGE; Beta-endorphin; UniProt P01189 237-267, looked up)”, the analgesic action result was “profound analgesic effects”.
